Values quoted from earlier work in US20050203105A1, “Composition and method for controlling alcohol-induced facial flushing in susceptible humans” (priority 2003, published 2005).
Read-outs that look alike come from different tables or passages of the source. One block for each compound: values may come before it.

Assays:
[1] = given with an MAOI
[2] = for Half-life: increased in renal impairment (cimetidine: also hepatic impairment and the elderly); for Elimination, Urine, Unchanged, Oral / effect of food on absorption: oral
H1 receptor = H1 receptor (Homo sapiens, UniProt P35367)
muscarinic receptors = tested on: muscarinic receptors; design: key: +++++ = Very high; +++ = high; ++ = moderate; + = low; ± = low to none
alcohol-induced flushing [3] = conditions: for rise in skin oxygen tension after sherry: oral, 30 minutes before 30-50 ml of sherry
[4] = tested on: flushing responses to red wine, chocolate and hot water; conditions: one patient with carcinoid syndrome; two weeks of oral prior treatment
alcohol-induced flushing [5] = conditions: for Facial flushing: 0.64 gm orally one hour before ethanol
QT interval = conditions: in vivo
[6] = for time to peak plasma levels: oral
[7] = tested on: alcohol-induced rosacea flushing; conditions: subcutaneous pretreatment; 360 ml of 6% ethanol; patients with rosacea
ethanol intoxication = conditions: intravenous
[8] = dose range of 10 to 40 mg
[9] = tested on: potassium rectifier currents

H1 receptor, sequence (P35367 whole entry): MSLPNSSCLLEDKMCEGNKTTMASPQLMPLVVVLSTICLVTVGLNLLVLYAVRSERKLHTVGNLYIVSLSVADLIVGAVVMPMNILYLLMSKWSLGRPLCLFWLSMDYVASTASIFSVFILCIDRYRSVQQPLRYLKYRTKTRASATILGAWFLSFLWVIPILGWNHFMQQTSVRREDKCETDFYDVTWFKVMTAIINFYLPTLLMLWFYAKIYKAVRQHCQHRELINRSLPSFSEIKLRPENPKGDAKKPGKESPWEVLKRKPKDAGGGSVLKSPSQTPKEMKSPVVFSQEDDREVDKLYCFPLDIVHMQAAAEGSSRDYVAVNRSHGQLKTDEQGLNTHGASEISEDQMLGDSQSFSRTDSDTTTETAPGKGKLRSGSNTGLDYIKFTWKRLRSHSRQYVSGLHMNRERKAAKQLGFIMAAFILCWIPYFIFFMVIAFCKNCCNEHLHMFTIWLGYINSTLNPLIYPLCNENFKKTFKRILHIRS

Compound: CN1CCC(=C2c3ccccc3CCc3cccnc32)CC1 [Azatadine]
Antihistaminic activity (H1 receptor): ++
Anticholinergic activity (muscarinic receptors): ++

Compound: CN1CCC2=C(C1)C(c1ccccc1)c1ccccc12 (centres unmarked) [Phenindamine]
Antihistaminic activity (H1 receptor): ++
Anticholinergic activity (muscarinic receptors): ++

Compound: CN(C)CCC(c1ccc(Cl)cc1)c1ccccn1 (centres unmarked) [Chlorpheniramine]
sedative action of absorbed alcohol (alcohol-induced flushing [3]; in vivo): potentiates the sedative action of the alcohol absorbed
rise in skin oxygen tension after sherry (alcohol-induced flushing [3]): did not affect the rise in skin oxygen tension
flushing response to red wine, chocolate and hot water challenges [4]: did not affect the flushing response

Compound: CC(=O)Oc1ccccc1C(=O)O [aspirin, acetylsalicylic acid]
Body sway (alcohol-induced flushing [5]; both groups of subjects): reduced
alcohol induced increase in heart rate (alcohol-induced flushing [5]; flushing group): reduced
Facial flushing (alcohol-induced flushing [5]; flushing group): markedly reduced
Facial flushing (alcohol-induced flushing [5]; non-flushing Occidentals): slightly increased

Compound: CN1CCC(CN2c3ccccc3Sc3ccccc32)C1 (centres unmarked) [Methdilazine]
Antihistaminic activity (H1 receptor): ++ to +++
Anticholinergic activity (muscarinic receptors): +++

Compound: CC(C)(C)c1ccc(C(O)CCCN2CCC(C(O)(c3ccccc3)c3ccccc3)CC2)cc1 (centres unmarked) [Terfenadine]
single overdose associated with serious cardiovascular adverse events (QT interval): ≥ 360 mg
dose eliminated via the urine ([6]; in vivo): 40%
elimination half-life ([6]; in vivo): 20 h
fecal excretion of the dose ([6]; in vivo): 60%
time to peak plasma levels [6]: 2 h

Compound: C=CCN1CC[C@]23c4c5ccc(O)c4O[C@H]2C(=O)CC[C@@]3(O)[C@H]1C5 [naloxone]
alcohol-induced rosacea flushing (AIRF) [7]: blocked
impairment by ethanol (typing errors) (ethanol intoxication; CPAF group): reversed this effect
impairment by ethanol (typing errors) (ethanol intoxication; non-flushing group): no effect

Compound: Clc1ccc2c(c1)CCc1cccnc1C2=C1CCNCC1 [desloratadine, descarboethoxyloratadine]
dose dependence of pharmacokinetics [8]: independent of dose

Compound: Clc1cccc(Cl)c1N=C1NCCN1 [clonidine]
flushing response to red wine, chocolate and hot water challenges [4]: blocked the flushing responses to red wine and chocolate, but not to hot water

Compound: CCOC(=O)N1CCC(=C2c3ccc(Cl)cc3CCc3cccnc32)CC1 [Loratadine, ethyl 4-(8-chloro-5,6-dihydro-11H-benzo[5,6]cyclohepta[1,2-b]pyridin-11-ylidene)-1-piperidinecarboxylate]
potassium rectifier currents [9]: inhibit the potassium rectifier currents

Now from value to compound, other results behind:

interaction with an MAOI [1]: may cause severe hypotension
Compound: CN(C)CC[C@@H](c1ccc(Cl)cc1)c1ccccn1 [Dexchlorpheniramine]

Peak Plasma Concentration ([2]; 150 mg dose, dose dependent): 0.7 to 1.8 µg/mL
Peak Plasma Concentration ([2]; 300 mg dose, dose dependent): 1.4 to 3.6 µg/mL
Plasma concentrations 12 hours after administration ([2]; 12 hours after administration): less than 10 mcg/L
Bioavailability ([2]; in vivo): >90%
Elimination, Metabolized ([2]; in vivo): <18%
Protein Binding ([2]; in vivo): ≈35%
Time to Peak Plasma Concentration ([2]; in vivo): 0.5 to 3 h
Volume of Distribution ([2]; in vivo): 0.8 to 1.5 L/kg
Half-life [2]: 1-2^3 hrs
Elimination, Urine, Unchanged, Oral [2]: 60%
Compound: CNC(=C[N+](=O)[O-])NCCSCc1csc(CN(C)C)n1 [Nizatidine]

Peak Plasma Concentration ([2]; 40 mg dose, dose dependent): 0.076 to 0.1 µg/mL
Elimination, Urine, Unchanged, IV ([2]; IV): 65-70%
Bioavailability ([2]; in vivo): 40-45%
Elimination, Metabolized ([2]; in vivo): 30-35%
Protein Binding ([2]; in vivo): 15-20%
Time to Peak Plasma Concentration ([2]; in vivo): 1 to 3 h
Volume of Distribution ([2]; in vivo): 1.1 to 1.4 L/kg
Half-life [2]: 2.5-3.5^3 hrs
Elimination, Urine, Unchanged, Oral [2]: 25-30%
Compound: NC(N)=Nc1nc(CSCCC(N)=NS(N)(=O)=O)cs1 [Famotidine]
effect on hepatic oxidative metabolism (cytochrome P450 enzymes): do not seem to interfere with hepatic oxidation

Antihistaminic activity (H1 receptor): + to ++
Anticholinergic activity (muscarinic receptors): ±
Compound: CN(C)CCN(Cc1ccccc1)c1ccccn1 [Tripelennamine]

Antihistaminic activity (H1 receptor): ++ to +++
Anticholinergic activity (muscarinic receptors): +++
Compound: CC(CN(C)C)CN1c2ccccc2Sc2ccccc21 (centres unmarked) [Trimeprazine]

Antihistaminic activity (H1 receptor): ++ to +++
Anticholinergic activity (muscarinic receptors): ++
Compound: Cc1ccc(/C(=C\CN2CCCC2)c2ccccn2)cc1 [Triprolidine]

half-life, distribution phase ([6]; biphasic): 20 h
protein bound ([6]; in vivo): 96.7%
time to peak plasma levels [6]: ≤ 1 h
reduction of absorption when taken with food ([6]; with food): 60%
Compound: COc1ccc(CCN2CCC(Nc3nc4ccccc4n3Cc3ccc(F)cc3)CC2)cc1 [Astemizole]
QT prolongation, ventricular arrhythmias, torsade de pointes (QT interval): can cause QT interval prolongation/ventricular arrhythmias

Antihistaminic activity (H1 receptor): +++
Anticholinergic activity (muscarinic receptors): ++
Compound: CN(C)CCC(c1ccc(Br)cc1)c1ccccn1 (centres unmarked) [Brompheniramine]

Antihistaminic activity (H1 receptor): + to ++
Anticholinergic activity (muscarinic receptors): +++
Compound: CN(C)CCOC(c1ccc(Cl)cc1)c1ccccn1 (centres unmarked) [Carbinoxamine]

Bioavailability ([2]; IM): (90-100 IM) %
Peak Plasma Concentration ([2]; IM): (0.58 IM) mcg/ml
Time to Peak Plasma Concentration ([2]; IM): (0.25 IM) hrs
Elimination, Urine, Unchanged, IV ([2]; IV): 68-79%
Bioavailability ([2]; in vivo): 50-160%
Elimination, Metabolized ([2]; in vivo): <10%
Protein Binding ([2]; in vivo): 15%
Time to Peak Plasma Concentration ([2]; in vivo): 1 to 3 h
Volume of Distribution ([2]; in vivo): 1.2 to 1.9 L/kg
Half-life [2]: 2-3^3 hrs
Peak Plasma Concentration ([2]; no dose given, dose dependent): 0.44 to 0.55 µg/mL
Elimination, Urine, Unchanged, Oral [2]: 30-35%
Compound: CNC(=C[N+](=O)[O-])NCCSCc1ccc(CN(C)C)o1 [Ranitidine]
effect on hepatic oxidative metabolism (cytochrome P450 enzymes): do not seem to interfere with hepatic oxidation
effect of food on absorption [2]: not significantly impaired by the administration of food

Peak Plasma Concentration ([2]; 300 mg dose, dose dependent): 0.7 to 3.2 µg/mL
Elimination, Urine, Unchanged, IV ([2]; IV): 75%
Peak Plasma Concentration ([2]; IV): (3.5-7.5 IV) mcg/ml
Bioavailability ([2]; in vivo): 60-70%
Elimination, Metabolized ([2]; in vivo): 30-40%
Protein Binding ([2]; in vivo): 13-25%
Time to Peak Plasma Concentration ([2]; in vivo): 0.75 to 1.5 h
Volume of Distribution ([2]; in vivo): 0.8 to 1.2 L/kg
Half-life [2]: ≈2^2 hrs
Elimination, Urine, Unchanged, Oral [2]: 48%
effect of food on absorption [2]: unaffected by food
Compound: CN/C(=N/CCSCc1nc[nH]c1C)NC#N [Cimetidine]
rise in skin oxygen tension after sherry (alcohol-induced flushing [3]): did noticeably reduce the increase in oxygen concentration
effect on hepatic oxidative metabolism (cytochrome P450 enzymes): inhibits hepatic oxidative metabolism by most cytochrome P450 enzymes
flushing response to red wine, chocolate and hot water challenges [4]: blocked the flushing responses to red wine and chocolate, but not to hot water
removal by hemodialysis or peritoneal dialysis ([2]; in vivo): not significantly removed by hemodialysis or peritoneal dialysis
